Patent publication US20090030024A1, “THIAZOLES AS FUNGICIDES” (priority 2005, published 2009)
Marks after values point to notes of the source that are not given here.

Test: logP determination by retention times (calibration with alkan-2-ones)
Settings: not given

Question: Which chromatographic logP does the source give for `CC(=O)c1cccc(Nc2nccc(-c3sc(C)nc3C(F)(F)F)n2)c1` [Example 26, 1-[3-({4-[2-methyl-4-(trifluoromethyl)-1,3-thiazol-5-yl]pyrimidin-2-yl}amino)phenyl]ethanone] here?
Answer: 3.02

Question: Which chromatographic logP does the source give for `COc1ccc(Nc2nccc(-c3sc(C4CC4)nc3C)n2)cc1OC` [Example 223, 4-(2-cyclopropyl-4-methyl-1,3-thiazol-5-yl)-N-(3,4-dimethoxyphenyl)pyrimidine-2-amine] here?
Answer: 2.6

Question: Which chromatographic logP does the source give for `Cc1nc(C2CC2)sc1-c1ccnc(Nc2cccc(C(F)(F)F)c2)n1` [Example 229, 4-(2-cyclopropyl-4-methyl-1,3-thiazol-5-yl)-N-[3-(trifluoromethyl)phenyl]pyrimidine-2-amine] here?
Answer: 4.04

Question: Which chromatographic logP does the source give for `COc1cc(Nc2nccc(-c3sc(SC)nc3C)n2)cc(OC)c1OC` [Example 316, 4-[4-methyl-2-(methylthio)-1,3-thiazol-5-yl]-N-(3,4,5-trimethoxyphenyl)pyrimidine-2-amine] here?
Answer: 2.76

Question: Which chromatographic logP does the source give for `CC(=O)c1cccc(Nc2nccc(-c3sc(N)nc3C)n2)c1` [Example 4, 1-(3-{[4-(2-amino-4-methyl-1,3-thiazol-5-yl)pyrimidin-2-yl]amino}phenyl)ethanone] here?
Answer: 1.47

Question: With `CC(=O)c1cccc(Nc2nccc(-c3sc(C)nc3C)n2)c1` [Example 2, 1-(3-{[4-(2,4-dimethyl-1,3-thiazol-5-yl)pyrimidin-2-yl]amino}phenyl)ethanone] as the compound, how does the chromatographic logP read?
Answer: 2.14

Question: Which chromatographic logP does the source give for `COCc1nc(C)c(-c2ccnc(Nc3ccc(C#N)cc3)n2)s1` [Example 179, 4-({4-[2-(methoxymethyl)-4-methyl-1,3-thiazol-5-yl]pyrimidin-2-yl}amino)benzonitrile] here?
Answer: 2.57

Same assay, conditions: * HPLC reversed-phase C18, 40° C., mobile phase 0.1% aqueous formic acid and acetonitrile, linear gradient 10% to 95% acetonitrile

Question: With `CN(C)c1nc(C(F)(F)F)c(-c2ccnc(Nc3ccc4c(c3)OC(F)(F)O4)n2)s1` [Example 779, N-(2,2-difluoro-1,3-benzodioxol-5-yl)-4-[2-(dimethylamine)-4-(trifluoromethyl)-1,3-thiazol-5-yl]pyrimidine-2-amine] as the compound, how does the logP read?
Answer: 4.72*

Same assay, conditions: HPLC, reversed-phase C 18, EEC Directive 79/831 Annex V.A8; method *: 40° C., 0.1% aqueous formic acid and acetonitrile, linear gradient 10% to 95% acetonitrile

Question: For `Cc1cc(Nc2nccc(-c3sc(N(C)C)nc3C)n2)ccc1F` [Example 294, 4-[2-(dimethylamine)-4-methyl-1,3-thiazol-5-yl]-N-(4-fluoro-3-methylphenyl)pyrimidine-2-amine], which logP is on record?
Answer: 2.22*

Same assay, conditions: logP(HCOOH), HCOOH

Question: For `COc1cc(Nc2ncc(Cl)c(-c3sc(C)nc3C)n2)cc(OC)c1OC` [Example 874, 5-Chloro-4-(2,4-dimethyl-1,3-thiazol-5-yl)-N-(3,4,5-trimethoxyphenyl)-pyrimidine-2-amine], which chromatographic logP is on record?
Answer: 2.82

Same assay, conditions: logP, * HPLC reversed-phase C18, 40° C., mobile phase 0.1% aqueous formic acid and acetonitrile, linear gradient 10% to 95% acetonitrile

Question: Which chromatographic logP does the source give for `COCCNc1nc(C)c(-c2ccnc(Nc3cccc(NC(C)=O)c3)n2)s1` [Example 682, N-{3-[(4-{2-[(2-methoxyethyl)amino]-4-methyl-1,3-thiazol-5-yl}pyrimidin-2-yl)amino]phenyl}acetamide] here?
Answer: 1.36

Question: With `CCc1nc(C)c(-c2ccnc(N(C(=O)OC)c3ccccc3)n2)s1` [Example 732, methyl-[4-(2-ethyl-4-methyl-1,3-thiazol-5-yl)pyrimidin-2-yl]phenylcarbamate] as the compound, how does the chromatographic logP read?
Answer: 2.59

Question: Which chromatographic logP does the source give for `COCc1nc(C)c(-c2ccnc(Nc3ccc(OC)c(Cl)c3)n2)s1` [Example 419, N-(3-chloro-4-methoxyphenyl)-4-[2-(methoxymethyl)-4-methyl-1,3-thiazol-5-yl]pyrimidine-2-amine] here?
Answer: 2.91

Question: With `Cc1nc(C)c(-c2ccnc(Nc3ccc(F)c(F)c3)n2)s1` [Example 756, N-(3,4-difluorophenyl)-4-(2,4-dimethyl-1,3-thiazol-5-yl)pyrimidine-2-amine] as the compound, how does the chromatographic logP read?
Answer: 2.99

Question: With `CCc1nc(C)c(-c2ccnc(Nc3ccc(C(C)=O)cc3)n2)s1` [Example 717, 1-(4-{[4-(2-ethyl-4-methyl-1,3-thiazol-5-yl)pyrimidin-2-yl]amino}phenyl)ethanone] as the compound, how does the chromatographic logP read?
Answer: 2.6

Question: Which chromatographic logP does the source give for `Clc1ccc(-c2ncc(-c3ccnc(Nc4ccccc4)n3)s2)cc1` [Example 793, 4-[2-(4-chlorophenyl)-1,3-thiazol-5-yl]-N-phenylpyrimidine-2-amine] here?
Answer: 4.85

Question: For `Cc1nc(C(F)(F)F)c(-c2ccnc(Nc3cccc(Cl)c3)n2)s1` [Example 433, N-(3-chlorophenyl)-4-[2-methyl-4-(trifluoromethyl)-1,3-thiazol-5-yl]pyrimidine-2-amine], which chromatographic logP is on record?
Answer: 4.03

Question: For `CCc1nc(C)c(-c2ccnc(Nc3ccc4c(c3)OCO4)n2)s1` [Example 618, N-1,3-benzodioxol-5-yl-4-(2-ethyl-4-methyl-1,3-thiazol-5-yl)pyrimidine-2-amine], which chromatographic logP is on record?
Answer: 2.77

Question: For `CC(=O)NCc1cccc(Nc2nccc(-c3sc(C4CC4)nc3C)n2)c1` [Example 414, N-(3-{[4-(2-cyclopropyl-4-methyl-1,3-thiazol-5-yl)pyrimidin-2-yl]amino}benzyl)acetamide], which chromatographic logP is on record?
Answer: 1.96

Question: For `Cc1cc(Nc2nccc(-c3sc(NCC4CCCO4)nc3C)n2)ccc1F` (stereo not drawn) [Example 483, N-(4-fluoro-3-methylphenyl)-4-{4-methyl-2-[(tetrahydrofuran-2-ylmethyl)amino]-1,3-thiazol-5-yl}pyrimidine-2-amine], which chromatographic logP is on record?
Answer: 2.03

Question: With `COc1ccc(Nc2nccc(-c3sc(SC)nc3C)n2)cn1` [Example 522, N-(6-methoxypyridin-3-yl)-4-[4-methyl-2-(methylthio)-1,3-thiazol-5-yl]pyrimidine-2-amine] as the compound, how does the chromatographic logP read?
Answer: 2.67

Question: Which chromatographic logP does the source give for `CCc1nc(C)c(-c2ccnc(N(C(C)=O)c3cccc(C(C)=O)c3)n2)s1` [Example 671, N-(3-acetylphenyl)-N-[4-(2-ethyl-4-methyl-1,3-thiazol-5-yl)pyrimidin-2-yl]acetamide] here?
Answer: 2.23

Question: For `Cc1nc(C)c(-c2ccnc(Nc3ccc(N(C)C)c(Cl)c3)n2)s1` [Example 674, 2-chloro-N4-[4-(2,4-dimethyl-1,3-thiazol-5-yl)pyrimidin-2-yl]-N1,N1-dimethylbenzene-1,4-diamine], which chromatographic logP is on record?
Answer: 2

Question: With `Cc1nc(C)c(-c2ccnc(Nc3ccc(N(C)C)cc3)n2)s1` [Example 552, N′-[4-(2,4-dimethyl-1,3-thiazol-5-yl)pyrimidin-2-yl]-N,N-dimethylbenzene-1,4-diamine] as the compound, how does the chromatographic logP read?
Answer: 1.41

Same assay, conditions: logP, values marked *: HPLC on reversed-phase C 18, 40° C., mobile phase 0.1% aqueous formic acid and acetonitrile, linear gradient 10% to 95% acetonitrile

Question: With `COCCOc1nc(C)c(-c2ccnc(Nc3cccc(C(C)=O)c3)n2)s1` [Example 912, 1-[3-({4-[2-(2-methoxyethoxy)-4-methyl-1,3-thiazol-5-yl]pyrimidin-2-yl}amino)phenyl]ethanone] as the compound, how does the chromatographic logP read?
Answer: 2.64

Question: With `COCCOc1nc(C)c(-c2ccnc(Nc3cccc(OC)c3)n2)s1` [Example 914, 4-[2-(2-methoxyethoxy)-4-methyl-1,3-thiazol-5-yl]-N-(3-methoxyphenyl)pyrimidine-2-amine] as the compound, how does the chromatographic logP read?
Answer: 2.92

Question: For `COCCCNc1nc(C)c(-c2ccnc(Nc3ccc(C(C)=O)cc3)n2)s1` [Example 855, 1-{4-[(4-{2-[(3-methoxypropyl)amino]-4-methyl-1,3-thiazol-5-yl}pyrimidin-2-yl)amino]phenyl}ethanone], which chromatographic logP is on record?
Answer: 1.81

Question: For `CCc1nc(C)c(-c2nc(Nc3cccc(Cl)c3)ncc2Br)s1` [Example 920, 5-bromo-N-(3-chlorophenyl)-4-(2-ethyl-4-methyl-1,3-thiazol-5-yl)pyrimidine-2-amine], which chromatographic logP is on record?
Answer: 4.36

Question: With `COc1cc(Nc2ncc(Cl)c(-c3sc(C)nc3C)n2)cc(OC)c1OC` [Example 874, 5-Chloro-4-(2,4-dimethyl-1,3-thiazol-5-yl)-N-(3,4,5-trimethoxyphenyl)-pyrimidine-2-amine] as the compound, how does the chromatographic logP read?
Answer: 2.82

Same assay, conditions: values marked *: HPLC on reversed-phase C 18, 40° C., mobile phase 0.1% aqueous formic acid and acetonitrile, linear gradient 10% to 95% acetonitrile

Question: With `CN(C)c1nc(C(F)(F)F)c(-c2ccnc(Nc3cccc([N+](=O)[O-])c3)n2)s1` [Example 859, 4-[2-(dimethylamine)-4-(trifluoromethyl)-1,3-thiazol-5-yl]-N-(3-nitrophenyl)pyrimidine-2-amine] as the compound, how does the logP read?
Answer: 3.99*
